# Results taken from ChEMBL document CHEMBL1153647, “Inhibitors of human leukocyte elastase. 3.1 inhibition by tetrahydrobenzisothiazolinylmethyl aryl carboxylates” (Bioorg Med Chem Lett, 1995).
# pKi: −log10 of the molar value.
# Target: T1, Neutrophil elastase (Homo sapiens) (UniProt P08246)
# T1 sequence (whole entry): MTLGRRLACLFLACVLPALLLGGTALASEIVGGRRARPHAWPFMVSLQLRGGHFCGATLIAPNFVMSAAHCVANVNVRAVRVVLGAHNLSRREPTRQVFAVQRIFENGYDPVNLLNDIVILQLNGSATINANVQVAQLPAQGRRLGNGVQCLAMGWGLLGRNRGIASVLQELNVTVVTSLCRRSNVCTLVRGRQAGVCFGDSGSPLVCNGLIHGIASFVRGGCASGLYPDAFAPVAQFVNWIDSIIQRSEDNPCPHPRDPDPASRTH
# Description: (§1) Compound was evaluated for the inhibitory activity against Human leukocyte elastase (HLE)
row,K inact,SMILES
1,18500 M⁻¹ s⁻¹,CC1(C)CCCC2=C1C(=O)N(COC(=O)c1c(Cl)cccc1Cl)S2(=O)=O
2,83000 M⁻¹ s⁻¹,CCC1CCCC2=C1C(=O)N(COC(=O)c1c(Cl)cccc1Cl)S2(=O)=O (stereo not drawn)
3,36000 M⁻¹ s⁻¹,CC1CCCC2=C1C(=O)N(COC(=O)c1c(Cl)cccc1Cl)S2(=O)=O (stereo not drawn)
4,10000 M⁻¹ s⁻¹,CC(C)C1CCCC2=C1C(=O)N(COC(=O)c1c(Cl)cccc1Cl)S2(=O)=O (stereo not drawn)
5,900000 M⁻¹ s⁻¹,CC(C)c1cccc2c1C(=O)N(COC(=O)c1c(Cl)cccc1Cl)S2(=O)=O

# Target: T2, Neutrophil elastase (Homo sapiens, UniProt P08246)
# T2 sequence (P08246 whole entry): T1 sequence (whole entry)
# Test: Ratio of Kreact to that of Kinact was determined on human leukocyte elastase(HLE)
row,pKi,SMILES
1,8.30,O=C(OCN1C(=O)C2=C(CCC2)S1(=O)=O)c1c(Cl)cccc1Cl
2,9.00,CC1(C)CCCC2=C1C(=O)N(COC(=O)c1c(Cl)cccc1Cl)S2(=O)=O
3,9.15,CCC1CCCC2=C1C(=O)N(COC(=O)c1c(Cl)cccc1Cl)S2(=O)=O (stereo not drawn)
4,7.00,O=C(OCN1C(=O)C2=C(CCCCC2)S1(=O)=O)c1c(Cl)cccc1Cl
5,9.00,CC1CCCC2=C1C(=O)N(COC(=O)c1c(Cl)cccc1Cl)S2(=O)=O (stereo not drawn)
6,9.00,CC(C)C1CCCC2=C1C(=O)N(COC(=O)c1c(Cl)cccc1Cl)S2(=O)=O (stereo not drawn)
7,9.10,O=C(OCN1C(=O)C2=C(C3CCC2C3)S1(=O)=O)c1c(Cl)cccc1Cl (stereo not drawn)

# Target: T1, Neutrophil elastase (Homo sapiens)
# Test: Compound was evaluated for the inhibitory activity against Human leukocyte elastase
K inact,Kreact,SMILES
3300 M⁻¹ s⁻¹,5.9e-05 s⁻¹,O=C(OCN1C(=O)C2=C(CCCC2)S1(=O)=O)c1c(Cl)cccc1Cl

# Target: T2, Neutrophil elastase
# Test: Observed binding affinity against Human leukocyte elastase (HLE)
row,pKi,SMILES
1,10.15,CCc1cccc2c1C(=O)N(COC(=O)c1c(Cl)cccc1Cl)S2(=O)=O
2,9.15,CCC1CCCC2=C1C(=O)N(COC(=O)c1c(Cl)cccc1Cl)S2(=O)=O (stereo not drawn)
3,9.00,CC1CCCC2=C1C(=O)N(COC(=O)c1c(Cl)cccc1Cl)S2(=O)=O (stereo not drawn)
4,9.00,CC(C)C1CCCC2=C1C(=O)N(COC(=O)c1c(Cl)cccc1Cl)S2(=O)=O (stereo not drawn)

# Target: T1, Neutrophil elastase (Homo sapiens)
# Remark: another data set of the same source
# Description: as §1
row,Kreact,SMILES
1,1.8e-05 s⁻¹,CC1(C)CCCC2=C1C(=O)N(COC(=O)c1c(Cl)cccc1Cl)S2(=O)=O
2,5.8e-05 s⁻¹,CCC1CCCC2=C1C(=O)N(COC(=O)c1c(Cl)cccc1Cl)S2(=O)=O (stereo not drawn)
3,3.6e-05 s⁻¹,CC1CCCC2=C1C(=O)N(COC(=O)c1c(Cl)cccc1Cl)S2(=O)=O (stereo not drawn)
4,1e-05 s⁻¹,CC(C)C1CCCC2=C1C(=O)N(COC(=O)c1c(Cl)cccc1Cl)S2(=O)=O (stereo not drawn)
5,2.7e-05 s⁻¹,CC(C)c1cccc2c1C(=O)N(COC(=O)c1c(Cl)cccc1Cl)S2(=O)=O
